We go through 14 compounds from PubChem BioAssay (NCI).

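Compound exposure: 48 hours, 5 concentrations, 96-well plates. At the TGI there is no net growth.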

Test systems include K-562 leukemia; A549 NSCLC; MALME-3M melanoma; UACC-62 melanoma; MOLT-4 leukemia; NCI-H522 lung; SNB-75 CNS; SF-539 CNS; HCC-2998 colon; HL-60(TB) leukemia.
Assay in all cases: NCI-60 cell line screen, 48 h

For the compound `CCCCC(=C=C1CCCCC1O)C1CCCN1C(=O)OC(C)(C)C` (centres undefined), the TGI is 34.1 µM in the assay with K-562 leukemia; 29.3 µM in the assay on A549 NSCLC; 31.6 µM in the assay with MALME-3M melanoma; 23.4 µM in the assay with UACC-62 melanoma; 33.5 µM in the assay on MOLT-4 leukemia; 32.8 µM in the assay with NCI-H522 lung. For the same compound, the TGI in the assay on SNB-75 CNS was found to be 26.7 µM; in the assay on SF-539 CNS, 35.5 µM; with HCC-2998 colon it was 36.6 µM; in the assay on HL-60(TB) leukemia, 25.5 µM.

With `COC1(OC)N=C(N)C2(C#N)/C(=N/N(C)C)CC(C)C12C#N` (centres undefined), the TGI in the assay with K-562 leukemia, with A549 NSCLC, in the assay on MALME-3M melanoma, with UACC-62 melanoma, with MOLT-4 leukemia and in the assay with NCI-H522 lung was > 100 µM throughout. Besides, the TGI with SNB-75 CNS, in the assay on SF-539 CNS, in the assay with HCC-2998 colon and in the assay with HL-60(TB) leukemia was > 100 µM in each case.

Take `COC1(OC)/C(=C(\N)C=O)NC(C)(C)N1O`: the TGI in the assay on K-562 leukemia, in the assay on A549 NSCLC, in the assay on MALME-3M melanoma, in the assay on UACC-62 melanoma, in the assay with MOLT-4 leukemia and in the assay with NCI-H522 lung was > 100 µM in each case. The TGI in the assay with SNB-75 CNS is > 100 µM; in the assay with SF-539 CNS, > 100 µM; in the assay with HCC-2998 colon, > 100 µM; with HL-60(TB) leukemia it was 55.9 µM.

Regarding `COC(=O)C1(Cc2ccccc2)Cc2ccccc2C1=O` (centres undefined), the TGI was > 100 µM in the assay with K-562 leukemia; > 100 µM with A549 NSCLC; 39.3 µM in the assay with MALME-3M melanoma; > 100 µM with UACC-62 melanoma; 90.9 µM in the assay on MOLT-4 leukemia; > 100 µM in the assay with SNB-75 CNS. Also, the TGI in the assay with SF-539 CNS is > 100 µM; with HCC-2998 colon, > 100 µM; in the assay on HL-60(TB) leukemia, 51.1 µM.

Regarding `COc1ccc(C=O)cc1Oc1ccc(C[C@H]2c3c(cc(OC)c4c3Oc3cc5c(cc3O4)CCN(C)C5=O)CCN2C)cc1`, the TGI was 12.3 µM with K-562 leukemia; > 50 µM with A549 NSCLC; 20.2 µM in the assay with MALME-3M melanoma; 21.7 µM in the assay on MOLT-4 leukemia; 18.1 µM in the assay with NCI-H522 lung; 14 µM in the assay with SNB-75 CNS. For the same compound, the TGI in the assay with SF-539 CNS is 18.3 µM; in the assay with HCC-2998 colon, 15.1 µM; in the assay with HL-60(TB) leukemia, 17.5 µM.

Take `COC(=O)CCc1ccc2c(c1)CC1(C2)Cc2ccc(CCC(=O)OC)cc2C1`: the TGI in the assay with K-562 leukemia, in the assay with A549 NSCLC, in the assay on MALME-3M melanoma, in the assay with UACC-62 melanoma, in the assay on MOLT-4 leukemia and with NCI-H522 lung was > 100 µM throughout. In addition, the TGI in the assay with SNB-75 CNS is > 100 µM; with SF-539 CNS, > 100 µM; in the assay on HCC-2998 colon, > 100 µM; in the assay on HL-60(TB) leukemia, 38.7 µM.

Regarding `COc1cc(O)c2c(c1)C(O)C(O)CC1OC1C(=O)/C=C/CC(C)OC2=O` (centres undefined), the TGI in the assay on K-562 leukemia was found to be 13.6 µM; in the assay on A549 NSCLC, 67.8 µM; in the assay on MALME-3M melanoma it was 6.91 µM; in the assay on UACC-62 melanoma it was 3.2 µM; in the assay on MOLT-4 leukemia, 17.2 µM; in the assay on NCI-H522 lung, 8.07 µM. Moreover, the TGI was 24.6 µM in the assay with SNB-75 CNS, 17.9 µM with SF-539 CNS, 16.7 µM in the assay with HCC-2998 colon and > 23.4 µM in the assay with HL-60(TB) leukemia.

Regarding `COc1ccc([C@@]23CCC(=O)C[C@@H]2N(C)CC3)cc1OC`, the TGI with K-562 leukemia, in the assay with A549 NSCLC, in the assay on MALME-3M melanoma, with UACC-62 melanoma, with MOLT-4 leukemia and with NCI-H522 lung was > 100 µM each time. The TGI in the assay with SNB-75 CNS, in the assay with SF-539 CNS, with HCC-2998 colon and in the assay with HL-60(TB) leukemia was > 100 µM in each case.

Consider `O=C(O)CNC(=O)c1cccc2c(=O)c3ccccc3[nH]c12`, for which the TGI in the assay on K-562 leukemia, in the assay on A549 NSCLC, with MALME-3M melanoma, with UACC-62 melanoma, in the assay on MOLT-4 leukemia and in the assay on NCI-H522 lung was > 100 µM in each case. Also, the TGI with SNB-75 CNS, in the assay on SF-539 CNS, in the assay on HCC-2998 colon and with HL-60(TB) leukemia was > 100 µM in each case.

`COC1=CC2(C=CC1=O)CCN=c1c(O)c3c(c(O)c12)=NC=N3` (centres undefined): the TGI in the assay with K-562 leukemia, with A549 NSCLC, with MALME-3M melanoma, in the assay on UACC-62 melanoma, with MOLT-4 leukemia and with NCI-H522 lung was > 100 µM each time. Moreover, the TGI in the assay on SNB-75 CNS, with SF-539 CNS, in the assay on HCC-2998 colon and with HL-60(TB) leukemia was > 100 µM in each case.

Take `COc1ccc(-c2c(C(C)=O)c(C)n(C3OC(CO)C(O)C(O)C3O)c(=S)c2C#N)cc1` (centres undefined): the TGI in the assay with K-562 leukemia, in the assay on A549 NSCLC, with MALME-3M melanoma, in the assay on UACC-62 melanoma, in the assay with MOLT-4 leukemia and with SNB-75 CNS was > 100 µM in each case. The TGI in the assay with SF-539 CNS and with HL-60(TB) leukemia was > 100 µM each time.

For the compound `Cc1cc(S(=O)(=O)NC(=NCC(=O)NN)NN)c(S)cc1Cl`, the TGI in the assay on K-562 leukemia, with A549 NSCLC, in the assay on MALME-3M melanoma, in the assay on UACC-62 melanoma, with MOLT-4 leukemia and in the assay with NCI-H522 lung was > 10 µM throughout. The TGI in the assay on SNB-75 CNS, in the assay on SF-539 CNS, with HCC-2998 colon and in the assay on HL-60(TB) leukemia was > 10 µM throughout.

On to `CCN(CC)c1ccc(C(=C2C=CC(=[N+](CC)CC)C=C2)c2ccccc2)cc1`, for which the TGI in the assay with K-562 leukemia came to 0.0968 µM; with MALME-3M melanoma, 0.0902 µM; with UACC-62 melanoma it was 0.231 µM; in the assay on MOLT-4 leukemia it was 0.0383 µM; with NCI-H522 lung, 0.143 µM; in the assay on SNB-75 CNS, 1.25 µM. The TGI worked out at 0.269 µM with SF-539 CNS, 0.135 µM with HCC-2998 colon and 0.0318 µM in the assay on HL-60(TB) leukemia.

With `O=C(O)c1ccccc1-c1ccccc1C(=O)c1ccccc1`, the TGI with K-562 leukemia, with A549 NSCLC, in the assay with MALME-3M melanoma, in the assay on UACC-62 melanoma, in the assay with MOLT-4 leukemia and in the assay with NCI-H522 lung was > 100 µM in each case. Moreover, the TGI with SNB-75 CNS, with SF-539 CNS and with HL-60(TB) leukemia was > 100 µM throughout.
